According to patent publication US6765104B1, “Transition metal complexes of n, n',n″trialkyl-cis-1,3,5-triaminocyclohexane and related compositions and methods of synthesis and use” (The United States of America as represented by the …, priority 1999, dated 2004):
Blank lines part the entries; values can stand above or below the compound they belong to.

Columns and labels:
[1] = Hydrolysis of bis(p-nitrophenyl)phosphate, initial rate of 4-nitrophenolate formation at 400 nm; format: biochemical
Procedure: The copper (II) complex of N,N′,N″-trimethyl-cis,cis-1,3,5-triaminocyclohexane prepared in accordance with the method of Example 2 (1 mM) was combined with bis(4-nitrophenyl)phosphate (1 mM) and HEPES (50 mM), pH 7.24, at 50° C. and incubated, while monitoring for an increase in absorbance at 400 nm. An aliquot was withdrawn and analyzed by reverse phase HPLC, eluted with a linear gradient of 100% 50 mM acetic acid/50 mM triethylamine to 100% methanol over thirty minutes. The signals observed in the reaction mixture corresponded to the predicted hydrolytic products, p-nitrophenyl phosphate (10.5 min) and 4-nitrophenolate (16.8 min), as well as unreacted bis(p-nitrophenyl)phosphate (20.2 min). Products were confirmed by co-injection of standards.
(§1) Measurements were performed as previously described (Deal et al. (Inorg. Chem. 1996), supra). Briefly, the initial rate of formation of 4-nitrophenolate was monitored spectrophotometrically at 400 nm for 1 hr or for less than 10% conversion of bis(p-nitrophenyl)phosphate to products. Reactions were run in sets of four, triplicate reaction mixtures and one reference. Spontaneous hydrolysis of the phosphate diester was corrected in the reference, which was identical to the reaction mixture, except lacking metal complex. The concentration of 4-nitrophenolate was calculated from the absorbance using an extinction coefficient of 18700 L mol^−1 cm^−1. The initial rate was obtained from the slope of the plots of 4-nitrophenolate concentration vs. time.

[2] = Deal et al. (Inorg. Chem. 1996); cited from earlier work
[3] = system: Chinese hamster V79 cells; experiment: Cytotoxicity by macroscopic colony formation, surviving fraction of V79 cells; format: cell-based; conditions: for treated cells that survive: concentration of 3 mM, FIG. 1
Procedure: Chinese hamster V79 cells were maintained in a 5% CO2/95% air humidified atmosphere at 37° C. in nutrient mixture F12 with 10% heat-inactivated fetal bovine serum and antibiotics. One day before each experiment, 5×10^5 V79 cells were plated into 100 mm petri dishes and incubated overnight The cells were exposed to the copper complex of N,N′,N″-triethyl-cis,cis-1,3,5-triaminocyclohexane or N,N,N″-triethyl-cis,cis-1,3,5-triaminocyclohexane or the corresponding ligand of N,N′,N″-triethyl-cis,cis-1,3,5-triaminocyclohexane or N,N′,N″-triethyl-cis,cis-1,3,5-triaminocyclohexane alone for 1 or 24 hours, after which they were rinsed, trypsinized, and plated for macroscopic colony formation. After incubating for 7 days, colonies were fixed with methanol/acetic acid and stained with crystal violet. Colonies larger than 50 cells were counted.

[4] = system: hypoxic MCF-7 human mammary carcinoma cells; experiment: Cytotoxicity to hypoxic MCF-7 cells, surviving fraction; format: cell-based; conditions: 1500 μM, 1 hour, FIG. 3
Procedure: (§2) MCF-7 human mammary carcinoma cells were maintained in a 5% CO2/95% air humidified atmosphere at 37° C. in RPMI 1640 with 10% heat-inactivated fetal bovine serum and antibiotics. For hypoxia experiments, 3×10^5 MCF-7 cells were plated into glass flasks, and incubated overnight The flasks were sealed with a rubber stopper, and two hypodermic needles were inserted to allow for gassing. Flasks were gassed with a 95% nitrogen/5% carbon dioxide mixture for one hour. The copper complex was added to the cells after they were hypoxic through a glass sidearm connected to the flask by a ground glass connection. Cells were incubated for 1 hour for experiments to assess the toxicity of the copper complex, then plated and incubated as described previously in Example 4.

[5] = Hydrolysis of ethyl (p-nitrophenyl)phosphate; format: biochemical
Procedure: as §1
Bis(p-nitrophenyl)phosphate was hydrolyzed more rapidly than ethyl (p-nitrophenyl)phosphate, which was hydrolyzed more rapidly than p-nitrophenyl phosphate. Thus, the rate of metal-promoted hydrolysis is dependent on the electron-withdrawing ability of the leaving group. Leaving groups which are strongly electron-withdrawing are considered activated and hydrolyze more rapidly. […]

[6] = system: hypoxic MCF-7 human mammary carcinoma cells; experiment: Hypoxic irradiation with the copper complex, surviving fraction of MCF-7 cells; format: cell-based; conditions: 15 minutes with complex, then irradiated, FIG. 4
Procedure: as §2, with “4. For hypoxic irradiation experiments, cells were incubated with the copper complex for 15 minutes, then irradiated, plated and incubated as described previously in Example 4. Cells were irradiated with an Eldorado 8 Cobalt-60 teletherapy machine (Theratronics International Ltd., Kanata, Ontario, Canada). The dose rate varied form 200 to 150 cGy/min during the course of this study. Decay corrections were done monthly, and full electron equilibrium was ensured for all irradiations.” for “4.”

Compound: O=P(O)(O)OP(=O)(O)O [pyrophosphate, reference compound]
inhibition of the hydrolysis reaction ([1]; 0.5 equivalents relative to the copper complex): completely inhibited

Compound: copper (II) triazacyclononane [copper (II) triazacyclononane system]
rate of phosphate diester hydrolysis [2]: 1.3e-06 s⁻¹

Compound: copper complex of N,N′,N″-triethyl-cis,cis-1,3,5-triaminocyclohexane
treated cells that survive [3]: 15%

pKa from plot of log initial rate versus pH (Dixon method) ([1]; consistent with deprotonation of a copper(II) coordinated water molecule): 7.3
Km ([1]; modified Lineweaver-Burke function, read-out: Michaelis Constant (Km)): 4.4 mM
Compound: copper complex of N,N′,N″-trimethyl-cis,cis-1,3,5-triaminocyclohexane
rate of phosphate diester hydrolysis relative to the copper (II) triazacyclononane system [1]: approximately 6.5 times faster
maximal velocity (Vmax) ([1]; modified Lineweaver-Burke function): 9.3e-08 s⁻¹
concentration producing approximately the same effect, cells treated for 1 hr ([3]; 1 hr, FIG. 2): 4000 µM
concentration producing approximately the same effect, cells treated for 24 hrs ([3]; 24 hrs, FIG. 2): 1000 µM
treated cells that survive [3]: 3%
treated hypoxic cells destroyed [4]: approximately 99%
rate acceleration compared to the copper (II) triazacyclononane system [5]: 6.7
radiation alone needed for the same effect as radiation plus the copper complex [6]: Approximately twice
